Values quoted from earlier work in patent US20180250285A1 (Teva Pharmaceutical Industries Ltd., priority 2012, published 2018).

Columns and labels:
[1] = in vivo
[2] = system: Huntington's disease patients
[3] = system: patients with HD

Structure (SMILES)	oral bioavailability [1]	tertiary endpoint UHDRS-TMS (changes in motor function) and individual items within the mMS (gait, dysarthria) ([2]; 45 mg daily or 45 mg twice daily for 6 months)	primary endpoint: effect on a specific subset of motor symptoms defined in the mMS ([2]; at 26 weeks, 45 mg daily or 45 mg twice daily)	symptomatic relief incl. improved hand movements, gait and balance [3]
CCN(C(=O)c1c(O)c2c(Cl)cccc2n(C)c1=O)c1ccccc1 [Laquinimod]	high			
CCCN1CCC(c2cccc(S(C)(=O)=O)c2)CC1 [pridopidine, 4-[3-(methylsulfonyl)phenyl]-1-propyl-piperidine]		statistically significant effect of treatment	not met	significant symptomatic relief
